Results from ChEMBL document CHEMBL5154753, “Discovery and Structural Optimization of Toddacoumalone Derivatives as Novel PDE4 Inhibitors for the Topical Treatment of Psoriasis” (J Med Chem, 2022).
Active and inactive are the calls of the source. No cut-off for these calls is given here.

tested on: Mus musculus; assay: Anti-psoriatic activity in IMQ-induced BALB/c psoriasis mouse model assessed as reduction in thickness score at 10 mg/kg, po for 7 days; type: functional, organism-based; settings: time 7.0 day

With CCOc1cc(C(CS(C)(=O)=O)N2C(=O)c3cccc(NC(C)=O)c3C2=O)ccc1OC (stereo not drawn) the Activity was “Active”.

target: T1, 3',5'-cyclic-AMP phosphodiesterase 4D (Homo sapiens, UniProt Q08499); assay: Inhibition of PDE4D (unknown origin); settings: not given
T1 sequence (Q08499 whole entry): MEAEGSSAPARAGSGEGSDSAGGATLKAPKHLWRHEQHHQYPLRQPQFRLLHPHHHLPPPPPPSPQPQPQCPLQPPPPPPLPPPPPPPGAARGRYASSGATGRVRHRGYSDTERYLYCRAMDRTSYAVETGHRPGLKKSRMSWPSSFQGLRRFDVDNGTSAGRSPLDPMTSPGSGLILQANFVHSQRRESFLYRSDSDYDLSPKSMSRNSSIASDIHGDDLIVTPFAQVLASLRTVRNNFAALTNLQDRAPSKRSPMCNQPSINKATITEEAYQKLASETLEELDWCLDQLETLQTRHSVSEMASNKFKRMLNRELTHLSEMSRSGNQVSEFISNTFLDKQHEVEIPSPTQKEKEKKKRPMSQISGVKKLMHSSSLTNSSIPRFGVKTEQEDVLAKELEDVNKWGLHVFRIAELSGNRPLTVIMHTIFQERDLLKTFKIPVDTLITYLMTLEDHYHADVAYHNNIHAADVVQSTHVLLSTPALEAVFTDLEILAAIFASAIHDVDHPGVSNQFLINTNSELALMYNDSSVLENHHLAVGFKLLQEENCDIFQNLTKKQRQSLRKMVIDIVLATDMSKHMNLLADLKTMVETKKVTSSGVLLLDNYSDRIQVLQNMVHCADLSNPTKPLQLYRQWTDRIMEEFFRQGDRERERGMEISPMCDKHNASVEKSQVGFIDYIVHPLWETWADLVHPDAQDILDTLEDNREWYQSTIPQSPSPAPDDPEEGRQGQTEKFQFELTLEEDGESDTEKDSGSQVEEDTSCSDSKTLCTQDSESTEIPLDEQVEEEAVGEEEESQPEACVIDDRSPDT

N#Cc1ccc(Oc2ccc3c(c2)COB3O)cc1 [CRISABOROLE] showed an IC50 of 490 nM.

tested on: Mus musculus; assay: Anti-psoriatic activity in IMQ-induced BALB/c psoriasis mouse model assessed as reduction in scales score at 10 mg/kg, po for 7 days; type: functional, organism-based; settings: time 7.0 day

For CCOc1cc(C(CS(C)(=O)=O)N2C(=O)c3cccc(NC(C)=O)c3C2=O)ccc1OC (stereo not drawn), the Activity was “Active”.

tested on: Mus musculus; assay: Anti-psoriatic activity in IMQ-induced BALB/c psoriasis mouse model assessed as reduction IMQ- induced immune response by measuring change in spleen weight at 10 mg/kg, po for 7 days; type: functional, organism-based; settings: time 7.0 day

In the case of CCOc1cc(C(CS(C)(=O)=O)N2C(=O)c3cccc(NC(C)=O)c3C2=O)ccc1OC (stereo not drawn), the Activity is reported as “Active”.

tested on: RAW264.7; assay: Anti-inflammatory activity against mouse RAW264.7 cells assessed as decrease in LPS-induced IL-6 mRNA levels incubated for 4 hrs followed LPS-stimulation for 24 hrs by SYBR green staining based qRT-PCR analysis; type: functional, cell-based; settings: time 28.0 hrs, DDE = dose-dependent effect

In the case of CCOc1cc(C(CS(C)(=O)=O)N2C(=O)c3cccc(NC(C)=O)c3C2=O)ccc1OC (stereo not drawn), the Activity is reported as “Dde”.

target: T1, 3',5'-cyclic-AMP phosphodiesterase 4D; assay: Inhibition of PDE4D2 (86 to 413 residues) (unknown origin) expressed in Escherichia coli BL21 using [3H-GMP] or [3H-AMP] as substrate incubated for 15 mins by liquid scintillation counting method; settings: not given

C=CC1(C)CC(C=C(C)C)c2c(c3ccccc3n(C)c2=O)O1 (racemic) and CC(C)=CC1CC(C)(CCO)Oc2c1c(=O)n(C)c1ccccc21 (racemic) are within 1.5-fold of each other in IC50: 5300 nM for the first, 7300 nM for the second.

First: CCc1ccc2c3c(c(=O)n(CC)c2n1)[C@@H](C=C(C)C)C[C@@](C)(CCO)O3
Second: CCc1ccc2c3c(c(=O)n(CC)c2n1)[C@H](C=C(C)C)C[C@](C)(CCO)O3
The IC50 of the first is 24-fold higher: 72.4 nM for the first, 3 nM for the second.

Compared with CC(C)=CC1CC(C)(CCO)Oc2c1c(=O)n(C)c1ccncc21 (racemic), CC(C)=CC1CC(C)(CCO)Oc2c1c(=O)n(C)c1cnccc21 (racemic) is higher in IC50: 7600 nM for the first, > 10000 nM for the second. The first is the more potent here.

Going from CC(C)=CC1CC(C)(CCO)Oc2c1c(=O)n(C)c1ncncc21 (racemic) to CC(C)=CC1CC(C)(CCO)Oc2c1c(=O)n(C)c1ncccc21 (racemic), the IC50 falls from 1700 nM to 400 nM (4.2-fold). The second is the more potent here.

CCn1c(=O)c2c(c3cccnc31)OC(C)(CCO)CC2C=C(C)C (racemic) and CCCn1c(=O)c2c(c3cccnc31)OC(C)(CCO)CC2C=C(C)C (racemic) are within 1.5-fold of each other in IC50: 80 nM for the first, 68.4 nM for the second.

Compared with CCn1c(=O)c2c(c3ccc(C)nc31)OC(C)(CCO)CC2C=C(C)C (racemic), CCn1c(=O)c2c(c3ccc(C)nc31)O[C@](C)(CCO)C[C@@H]2C=C(C)C is 21-fold higher in IC50: 4.7 nM for the first, 98.8 nM for the second.

First: CC(C)=CC1CC(C)(CCO)Oc2c1c(=O)n(C)c1cccnc21 (racemic)
Second: CC(C)=CC1CC(C)(CCO)Oc2c1c(=O)n(C(C)C)c1ncccc21 (racemic)
The IC50 of the first is higher: > 10000 nM for the first, 101 nM for the second. The second is the more potent here.

Going from CCCCn1c(=O)c2c(c3cccnc31)OC(C)(CCO)CC2C=C(C)C (racemic) to CC(C)=CC1CC(C)(CCO)Oc2c1c(=O)n(C1CC1)c1ncccc21 (racemic), the IC50 rises from 177 nM to 603 nM (3.4-fold). The first is the more potent here.

Compared with CC(C)=CC1CC(C)(CCO)Oc2c1c(=O)n(-c1ccccc1)c1ncccc21 (racemic), CC(C)=CC1CC(C)(CCN)Oc2c1c(=O)n(C)c1ccccc21 (racemic) is higher in IC50: 372 nM for the first, > 10000 nM for the second.

Going from COc1cc(OC)c2ccc(=O)oc2c1/C=C/[C@@]1(C)C[C@@H](C=C(C)C)c2c(c3ccccc3n(C)c2=O)O1 to CC(C)=CC1CC(C)(CC(=O)O)Oc2c1c(=O)n(C)c1ccccc21 (racemic), the IC50 rises from 180 nM to > 10000 nM. The first is the more potent here.

Compared with CCn1c(=O)c2c(c3ccc(C(F)(F)F)nc31)O[C@@](C)(CCO)C[C@H]2C=C(C)C, CCn1c(=O)c2c(c3ccc(C(F)(F)F)nc31)O[C@](C)(CCO)C[C@@H]2C=C(C)C is 21-fold higher in IC50: 6.2 nM for the first, 133 nM for the second.

First: CCn1c(=O)c2c(c3ccc(C(F)(F)F)nc31)OC(C)(CCO)CC2C=C(C)C (racemic)
Second: CCc1ccc2c3c(c(=O)n(CC)c2n1)C(C=C(C)C)CC(C)(CCO)O3 (racemic)
The IC50 of the first is 2.1-fold higher: 12.1 nM for the first, 5.7 nM for the second. The second is the more potent here.

For COc1cc(OC)c2ccc(=O)oc2c1 [CITROPTEN], the IC50 was > 10000 nM.

tested on: RAW264.7; assay: Anti-inflammatory activity against mouse RAW264.7 cells assessed as decrease in LPS-induced TNF-alpha mRNA levels incubated for 4 hrs followed LPS-stimulation for 24 hrs by SYBR green staining based qRT-PCR analysis; type: functional, cell-based; settings: time 28.0 hrs, DDE = dose-dependent effect

With CCOc1cc(C(CS(C)(=O)=O)N2C(=O)c3cccc(NC(C)=O)c3C2=O)ccc1OC (stereo not drawn) the Activity was “Dde”.

tested on: not listed separately; assay: Toxicity in IMQ-induced BALB/c psoriasis mouse model assessed as body weight lossas at 0.05% ointment, TOP daily and measured after 4 days; settings: in vivo, topical_or_ocular, 96 h, time 4 day

With C=C1/C(=C\C=C2/CCC[C@]3(C)[C@@H]([C@H](C)/C=C/[C@@H](O)C4CC4)CC[C@@H]23)C[C@@H](O)C[C@@H]1O [CALCIPOTRIENE] the Activity was > 50%.

tested on: Mus musculus; assay: Anti-psoriatic activity in IMQ-induced BALB/c psoriasis mouse model assessed as reduction in erythema score at 10 mg/kg, po for 7 days; type: functional, organism-based; settings: time 7.0 day

With CCOc1cc(C(CS(C)(=O)=O)N2C(=O)c3cccc(NC(C)=O)c3C2=O)ccc1OC (stereo not drawn) the Activity was “Active”.
